Three molecules from ChEMBL document CHEMBL1201862, “PubChem BioAssay data set” (2004) can be followed below.

Active and inactive are the calls of the source.

The target of experiment [1] is T1, Dual specificity protein phosphatase 6 (Rattus norvegicus, UniProt Q64346).
T1 sequence (Q64346 whole entry): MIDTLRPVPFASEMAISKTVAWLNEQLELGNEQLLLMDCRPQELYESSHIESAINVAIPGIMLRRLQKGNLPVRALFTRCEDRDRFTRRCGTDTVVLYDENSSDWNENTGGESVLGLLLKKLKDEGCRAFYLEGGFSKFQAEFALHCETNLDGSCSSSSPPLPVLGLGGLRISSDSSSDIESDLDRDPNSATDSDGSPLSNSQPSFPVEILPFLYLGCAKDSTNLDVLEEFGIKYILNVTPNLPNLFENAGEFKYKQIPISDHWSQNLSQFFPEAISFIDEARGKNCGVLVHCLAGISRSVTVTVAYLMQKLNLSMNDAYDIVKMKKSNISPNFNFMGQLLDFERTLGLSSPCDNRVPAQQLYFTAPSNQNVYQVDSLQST
The experiment is described as follows: inhibition of rat DUSP6 enzyme activity – biochemical, in vitro, primary screen (AID 425).

A short description of experiment [2]: viability of PTEN-deleted HCT116 cells – cell-based, HCT116 PTEN knockout, dose response (AID 1047).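 Further: HCT116 colon tumor cells with PTEN knocked out; cells exposed to compound for 60 hours before readout; potency for loss of cell viability measured by luminescence.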 The class given is functional.
In experiment [3] the target is T2, Dual specificity protein phosphatase 3 (Homo sapiens, UniProt P51452). The experiment is described as follows: VHR1 phosphatase inhibitors, primary screen, biochemical, absorbance, uHTS (AID 1654).
For experiment [4], the target named is T2, Dual specificity protein phosphatase 3. The experiment is described as follows: VHR phosphatase inhibition, dose response, selectivity assay for STEP inhibitor project, biochemical (AID 602374). The experiment is classed as functional. Particulars: read-out: IC50_Mean.
The target of experiment [5] is T3, Low molecular weight phosphotyrosine protein phosphatase (Homo sapiens, UniProt P24666).
T3 sequence (P24666 whole entry): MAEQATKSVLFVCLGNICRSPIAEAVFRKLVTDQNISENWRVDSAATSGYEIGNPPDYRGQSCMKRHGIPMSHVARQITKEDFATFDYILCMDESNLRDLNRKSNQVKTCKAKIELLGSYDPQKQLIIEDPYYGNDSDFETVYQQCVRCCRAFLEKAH
The experiment is classed as functional. The settings on record: read-out: IC50_Mean.

The target in experiment [6] is Tyrosine-protein phosphatase non-receptor type 11 (Homo sapiens, UniProt Q06124). As to the kind of experiment: PTPN11 enzyme inhibitors – biochemical, selectivity assay for STEP inhibitor project, dose response (AID 602367). The class given is functional. The settings on record: read-out: IC50_Mean.
Experiment [7] has as its target Tyrosine-protein phosphatase non-receptor type 5 (Homo sapiens, UniProt P54829). As to the kind of experiment: PTPN5 enzyme inhibition – biochemical, fluorescence intensity, uHTS hits, confirmation (AID 602372). The class given is functional. The settings on record: read-out: IC50_Mean.
Experiment [8] deals with T3, Low molecular weight phosphotyrosine protein phosphatase. The experiment is classed as functional. The settings on record: read-out: IC50_Mean. The source holds these as a separate data set.
Experiment [9] has as its target T2, Dual specificity protein phosphatase 3. As to the kind of experiment: VHR1 phosphatase inhibitors, biochemical (AID 1878).
Experiment [10] in a line: viability of HCT116 lacking mutant beta-catenin – cell-based, human colon tumor, dose response (AID 1045).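 Further: HCT116 colon tumor cells with beta catenin knocked out; cells exposed to compound for 60 hours.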 The class given is functional.
For another experiment, the system named is Streptococcus. The experiment is described as follows: GAS UMAA2166 growth inhibition – luminescence, BacTiterGlo, counter-screen for streptokinase expression inhibitor project, dose response (AID 1915).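 Further: potency for reduction of bacterial viability or growth.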 The experiment is classed as functional, organism-based. In general terms: A counterscreen serves to expose hits that act by an unwanted route or on another target.

The subject of experiment [11] is Streptococcus sp. 'group A'. The experiment is described as follows: Streptococcus pyogenes SK(-)GAS viability under kanamycin – luminescence, BacTiterGlo, confirmation, counter-screen for streptokinase expression inhibitor project, dose response (AID 1900). The experiment is classed as functional, organism-based.
In another experiment the target is T4, Bcl-2-related protein A1 (Mus musculus, UniProt Q07440).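 Further: confirmatory dose–response counterscreen on Bfl-1, used to check hits from a UBC13 polyubiquitin inhibitor campaign.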
T4 sequence (Q07440 whole entry): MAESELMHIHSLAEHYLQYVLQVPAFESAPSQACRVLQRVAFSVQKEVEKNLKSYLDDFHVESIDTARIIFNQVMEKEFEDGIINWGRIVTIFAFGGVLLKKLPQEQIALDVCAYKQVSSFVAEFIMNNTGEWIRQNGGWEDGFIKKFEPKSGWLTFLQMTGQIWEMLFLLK
The experiment is classed as functional.

Experiment [12] concerns the target T5, Ubiquitin-conjugating enzyme E2 N (Homo sapiens, UniProt P61088).
T5 sequence (P61088 whole entry): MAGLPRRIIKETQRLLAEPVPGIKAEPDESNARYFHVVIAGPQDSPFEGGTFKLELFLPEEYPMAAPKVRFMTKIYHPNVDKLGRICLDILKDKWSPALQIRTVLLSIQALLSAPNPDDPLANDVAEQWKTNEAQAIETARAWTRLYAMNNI
The class given is functional.

Another experiment addresses T6, Streptokinase A (Streptococcus pyogenes serotype M1, UniProt P10520).
T6 sequence (P10520 whole entry): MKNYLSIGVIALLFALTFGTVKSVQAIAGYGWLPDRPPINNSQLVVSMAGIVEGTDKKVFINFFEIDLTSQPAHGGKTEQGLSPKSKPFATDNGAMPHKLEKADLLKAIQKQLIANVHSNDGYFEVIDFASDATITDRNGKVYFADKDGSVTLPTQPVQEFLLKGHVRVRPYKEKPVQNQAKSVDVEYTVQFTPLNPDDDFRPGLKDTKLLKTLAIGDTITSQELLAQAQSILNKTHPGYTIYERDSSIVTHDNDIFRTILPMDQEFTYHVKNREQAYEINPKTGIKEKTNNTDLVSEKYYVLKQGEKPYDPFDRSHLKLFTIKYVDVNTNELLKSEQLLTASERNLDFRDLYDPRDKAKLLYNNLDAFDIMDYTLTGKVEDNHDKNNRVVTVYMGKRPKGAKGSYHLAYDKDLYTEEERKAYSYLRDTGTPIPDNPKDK
The experiment is described as follows: viability-normalized secreted streptokinase activity reduction – plasminogen activation absorbance, OD405, dose response (AID 1914).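 Further: secreted streptokinase activity via plasminogen activation per viability signal from cell pellet.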 The experiment is classed as functional, Streptococcus pyogenes M1 GAS.

Experiment [13] has as its target T5, Ubiquitin-conjugating enzyme E2 N. The class given is functional. The source holds these as a separate data set.
Experiment [14] deals with Voltage-dependent T-type calcium channel subunit alpha-1H (Homo sapiens, UniProt O95180). The experiment is described as follows: inhibition of CACNA1H calcium flux – cell-based, SynthLib3 library, HEK293 Cav3.2, fluorescence (AID 493041). The class given is functional. (A change in cytosolic calcium serves as a functional read-out for many receptors and channels.)
Chain of Voltage-dependent T-type calcium channel subunit alpha-1H (O95180 whole entry): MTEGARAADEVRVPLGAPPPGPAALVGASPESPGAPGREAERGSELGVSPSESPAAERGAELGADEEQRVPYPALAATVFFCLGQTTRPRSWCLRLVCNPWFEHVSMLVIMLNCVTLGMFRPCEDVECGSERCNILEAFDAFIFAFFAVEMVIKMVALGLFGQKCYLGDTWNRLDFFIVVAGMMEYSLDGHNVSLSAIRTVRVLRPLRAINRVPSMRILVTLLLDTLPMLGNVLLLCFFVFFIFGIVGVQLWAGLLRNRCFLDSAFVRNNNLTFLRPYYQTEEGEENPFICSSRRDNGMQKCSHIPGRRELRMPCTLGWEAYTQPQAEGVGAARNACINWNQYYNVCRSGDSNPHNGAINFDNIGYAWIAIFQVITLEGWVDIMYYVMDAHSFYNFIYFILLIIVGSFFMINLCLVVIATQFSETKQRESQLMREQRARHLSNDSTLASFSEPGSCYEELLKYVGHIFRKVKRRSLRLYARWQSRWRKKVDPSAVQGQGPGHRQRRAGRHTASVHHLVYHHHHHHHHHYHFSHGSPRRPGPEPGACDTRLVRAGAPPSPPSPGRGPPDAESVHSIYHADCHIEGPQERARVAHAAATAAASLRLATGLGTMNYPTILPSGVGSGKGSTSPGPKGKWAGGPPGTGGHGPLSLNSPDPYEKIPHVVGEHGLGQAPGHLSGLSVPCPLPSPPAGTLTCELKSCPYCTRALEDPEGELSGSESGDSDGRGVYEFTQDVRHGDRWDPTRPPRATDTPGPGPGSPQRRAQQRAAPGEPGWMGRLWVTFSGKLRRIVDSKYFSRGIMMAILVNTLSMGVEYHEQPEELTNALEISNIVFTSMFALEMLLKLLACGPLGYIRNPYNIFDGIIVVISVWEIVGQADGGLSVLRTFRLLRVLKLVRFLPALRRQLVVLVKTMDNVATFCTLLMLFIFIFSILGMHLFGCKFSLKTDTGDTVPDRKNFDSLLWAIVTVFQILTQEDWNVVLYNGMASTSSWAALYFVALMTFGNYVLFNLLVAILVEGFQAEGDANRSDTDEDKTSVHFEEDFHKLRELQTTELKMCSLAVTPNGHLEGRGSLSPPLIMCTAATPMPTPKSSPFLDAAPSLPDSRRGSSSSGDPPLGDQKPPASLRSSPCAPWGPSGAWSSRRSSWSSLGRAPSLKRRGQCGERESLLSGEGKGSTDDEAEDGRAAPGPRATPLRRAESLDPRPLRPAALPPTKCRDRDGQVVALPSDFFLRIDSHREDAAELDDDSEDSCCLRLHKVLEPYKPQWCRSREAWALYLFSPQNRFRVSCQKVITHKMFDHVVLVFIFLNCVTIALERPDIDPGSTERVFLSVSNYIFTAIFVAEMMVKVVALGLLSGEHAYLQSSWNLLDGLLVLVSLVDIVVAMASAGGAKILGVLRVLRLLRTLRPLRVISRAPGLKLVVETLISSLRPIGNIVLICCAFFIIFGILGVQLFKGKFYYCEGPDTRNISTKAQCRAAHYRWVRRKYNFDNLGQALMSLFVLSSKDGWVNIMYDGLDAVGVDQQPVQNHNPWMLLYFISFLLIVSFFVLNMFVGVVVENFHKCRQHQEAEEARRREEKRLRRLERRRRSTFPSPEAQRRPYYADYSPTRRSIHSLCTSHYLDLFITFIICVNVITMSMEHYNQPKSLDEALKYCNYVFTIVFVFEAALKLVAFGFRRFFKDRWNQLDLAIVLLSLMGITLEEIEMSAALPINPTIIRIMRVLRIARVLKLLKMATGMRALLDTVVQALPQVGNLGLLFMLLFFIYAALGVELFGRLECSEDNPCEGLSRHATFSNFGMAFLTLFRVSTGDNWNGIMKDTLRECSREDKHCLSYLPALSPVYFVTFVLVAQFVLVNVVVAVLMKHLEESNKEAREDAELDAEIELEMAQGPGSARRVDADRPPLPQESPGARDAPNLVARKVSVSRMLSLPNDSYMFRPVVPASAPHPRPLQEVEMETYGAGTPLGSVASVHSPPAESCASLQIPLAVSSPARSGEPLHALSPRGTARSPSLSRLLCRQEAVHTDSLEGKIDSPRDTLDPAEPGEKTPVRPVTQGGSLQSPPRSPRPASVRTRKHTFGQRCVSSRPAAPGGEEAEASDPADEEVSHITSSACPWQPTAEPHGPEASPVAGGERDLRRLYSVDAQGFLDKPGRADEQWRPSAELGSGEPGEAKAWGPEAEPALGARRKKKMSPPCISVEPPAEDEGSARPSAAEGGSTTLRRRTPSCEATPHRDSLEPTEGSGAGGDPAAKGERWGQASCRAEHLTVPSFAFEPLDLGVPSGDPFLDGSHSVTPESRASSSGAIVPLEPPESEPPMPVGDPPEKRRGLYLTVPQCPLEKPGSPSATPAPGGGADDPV

T2 sequence (P51452 whole entry): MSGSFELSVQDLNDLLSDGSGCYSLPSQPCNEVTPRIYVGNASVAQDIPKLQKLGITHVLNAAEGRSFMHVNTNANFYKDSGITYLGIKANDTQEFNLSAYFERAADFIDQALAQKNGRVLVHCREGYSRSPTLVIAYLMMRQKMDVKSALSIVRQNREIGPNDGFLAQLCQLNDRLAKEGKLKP
Chain of Tyrosine-protein phosphatase non-receptor type 11 (Q06124 whole entry): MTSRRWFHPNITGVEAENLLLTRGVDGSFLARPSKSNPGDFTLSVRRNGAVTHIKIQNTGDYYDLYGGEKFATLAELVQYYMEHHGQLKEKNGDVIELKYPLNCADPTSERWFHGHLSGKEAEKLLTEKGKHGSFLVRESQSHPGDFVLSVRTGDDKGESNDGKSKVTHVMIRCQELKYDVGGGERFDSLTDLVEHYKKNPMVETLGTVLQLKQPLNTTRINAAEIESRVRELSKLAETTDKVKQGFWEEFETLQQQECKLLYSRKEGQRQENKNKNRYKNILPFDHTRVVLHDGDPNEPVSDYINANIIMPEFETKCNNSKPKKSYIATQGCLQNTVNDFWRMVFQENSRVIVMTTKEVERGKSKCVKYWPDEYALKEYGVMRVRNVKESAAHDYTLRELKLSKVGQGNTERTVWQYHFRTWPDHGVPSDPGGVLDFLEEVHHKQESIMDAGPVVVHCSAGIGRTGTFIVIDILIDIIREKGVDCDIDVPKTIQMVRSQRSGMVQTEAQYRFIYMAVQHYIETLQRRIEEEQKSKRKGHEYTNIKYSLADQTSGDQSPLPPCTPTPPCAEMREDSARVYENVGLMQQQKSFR
Chain of Tyrosine-protein phosphatase non-receptor type 5 (P54829 whole entry): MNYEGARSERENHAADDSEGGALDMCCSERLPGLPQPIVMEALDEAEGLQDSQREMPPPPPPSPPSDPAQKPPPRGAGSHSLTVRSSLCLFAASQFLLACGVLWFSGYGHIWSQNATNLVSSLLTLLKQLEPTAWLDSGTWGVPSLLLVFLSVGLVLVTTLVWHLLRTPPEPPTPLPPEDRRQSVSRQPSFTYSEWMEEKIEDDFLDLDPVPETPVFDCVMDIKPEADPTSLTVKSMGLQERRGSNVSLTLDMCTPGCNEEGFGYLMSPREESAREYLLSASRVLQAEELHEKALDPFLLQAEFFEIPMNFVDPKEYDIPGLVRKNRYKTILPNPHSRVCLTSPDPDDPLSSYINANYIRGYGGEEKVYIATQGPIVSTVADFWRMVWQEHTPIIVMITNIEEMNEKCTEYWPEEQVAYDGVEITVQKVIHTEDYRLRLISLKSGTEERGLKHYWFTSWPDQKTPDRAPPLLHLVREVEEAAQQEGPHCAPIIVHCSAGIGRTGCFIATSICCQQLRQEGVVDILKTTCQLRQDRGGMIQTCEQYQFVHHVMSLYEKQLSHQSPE

In the case of `Cc1ccc(-c2nc(NC(=O)CSc3cc(C)c4ccccc4n3)ns2)cc1`, the IC50 in experiment [1] is 24.3 µM (active); in experiment [3] it was 27.3 µM (active); in experiment [4], 1.31 µM (active); in experiment [5], 9.06 µM (active); in experiment [6] it was 0.77 µM (active); in experiment [7] it was 3.06 µM (active). In addition, the IC50 is 11.7 µM (active) in experiment [8] and 8.86 µM (active) in experiment [9]. For the same molecule, the EC50 (as a rule, the concentration giving half of the maximal effect) was 29.1 µM (active) in [2] and 17.9 µM (active) in [10].
As for `COc1ccc(OCC(=O)NNC(=S)NC(=O)C2CC2)cc1`, the EC50 was 23.3 µM (active) in the experiment on Streptococcus, 7.37 µM (active) in [11] and > 150 µM (not active) at Streptokinase A. For the same molecule, the IC50 at Bcl-2-related protein A1 was > 20 µM (inactive); in [12], 6.63 µM (active); in [13], 14.8 µM (active).
For the molecule `CCC(CC)CN1CC2CCC(NC(=O)c3cc(Cl)cc(Cl)c3)C2C1` (configuration not stated), the EC50 in experiment [14] was 2.4 µM (active).
